According to ChEMBL document CHEMBL4699525, “Design and synthesis of new indanol-1,2,3-triazole derivatives as potent antitubercular and antimicrobial agents” (Bioorg Med Chem Lett, 2020):
≈ marks a conversion by molar mass, not a printed value.

Key:
Shigella boydii [1] = assay: Antibacterial activity against Shigella boydii assessed as inhibition of bacterial growth incubated for overnight by CLSI based method; assay type: functional
Saccharomyces cerevisiae [2] = assay: Antifungal activity against Saccharomyces cerevisiae assessed as inhibition of […] growth incubated for overnight by CLSI based method; assay type: functional
[3] = molecular target: T1, Enoyl-[acyl-carrier-protein] reductase [NADH] (Mycobacterium tuberculosis) (UniProt P9WGR1); assay: Inhibition of InhA in Mycobacterium tuberculosis H37Rv assessed antitubercular activity by measuring inhibition of bacterial growth incubated for 7 days by MABA assay; conditions: time 7.0 day
T1 sequence (whole entry): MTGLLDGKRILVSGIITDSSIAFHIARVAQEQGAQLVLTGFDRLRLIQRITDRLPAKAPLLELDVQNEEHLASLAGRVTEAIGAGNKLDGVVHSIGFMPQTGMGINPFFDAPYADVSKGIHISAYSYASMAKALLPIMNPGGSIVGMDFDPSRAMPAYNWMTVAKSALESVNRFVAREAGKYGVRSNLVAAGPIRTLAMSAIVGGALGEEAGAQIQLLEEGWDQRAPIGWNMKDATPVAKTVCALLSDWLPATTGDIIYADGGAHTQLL

Klebsiella aerogenes [4] = assay: Antibacterial activity against Enterobacter aerogenes assessed as inhibition of bacterial growth incubated for 24 hrs by agar well diffusion method; assay type: functional
Shigella boydii [5] = assay: Antibacterial activity against Shigella boydii assessed as inhibition of bacterial growth incubated for 24 hrs by agar well diffusion method; assay type: functional
Candida albicans [6] = assay: Antifungal activity against Candida albicans assessed as inhibition of […] growth incubated for overnight by CLSI based method; assay type: functional
Bacillus cereus = assay: Antibacterial activity against Bacillus cereus assessed as inhibition of bacterial growth incubated for 24 hrs by agar well diffusion method; assay type: functional
Aspergillus niger [7] = assay: Antifungal activity against Aspergillus niger assessed as inhibition of […] growth incubated for overnight by CLSI based method; assay type: functional
Aspergillus niger [8] = assay: Antifungal activity against Aspergillus niger assessed as inhibition of fungal growth incubated for 24 hrs by agar well diffusion method; assay type: functional
Staphylococcus aureus [9] = assay: Antibacterial activity against Staphylococcus aureus assessed as inhibition of bacterial growth incubated for overnight by CLSI based method; assay type: functional
Pseudomonas aeruginosa = assay: Antibacterial activity against Pseudomonas aeruginosa assessed as inhibition of bacterial growth incubated for 24 hrs by agar well diffusion method; assay type: functional
Klebsiella aerogenes [10] = assay: Antibacterial activity against Enterobacter aerogenes assessed as inhibition of bacterial growth incubated for overnight by CLSI based method; assay type: functional
Saccharomyces cerevisiae [11] = assay: Antifungal activity against Saccharomyces cerevisiae assessed as inhibition of fungal growth incubated for 24 hrs by agar well diffusion method; assay type: functional
[12] = test system: Salmonella enterica subsp. enterica serovar Abony; assay: Antibacterial activity against Salmonella abony assessed as inhibition of bacterial growth incubated for 24 hrs by agar well diffusion method; assay type: functional
[13] = Cytotoxicity against human HEK293 cells assessed as inhibition of cell growth at 25 uM incubated for 48 hrs by MTT assay; assay type: cell-based
Escherichia coli = assay: Antibacterial activity against Escherichia coli assessed as inhibition of bacterial growth incubated for 24 hrs by agar well diffusion method; assay type: functional
Staphylococcus aureus [14] = assay: Antibacterial activity against Staphylococcus aureus assessed as inhibition of bacterial growth incubated for 24 hrs by agar well diffusion method; assay type: functional
Candida albicans [15] = assay: Antifungal activity against Candida albicans assessed as inhibition of fungal growth incubated for 24 hrs by agar well diffusion method; assay type: functional
Bacillus subtilis = assay: Antibacterial activity against Bacillus subtilis assessed as inhibition of bacterial growth incubated for 24 hrs by agar well diffusion method; assay type: functional
Salmonella typhi = assay: Antibacterial activity against Salmonella typhi assessed as inhibition of bacterial growth incubated for 24 hrs by agar well diffusion method; assay type: functional, Salmonella enterica subsp. enterica serovar Typhi

Compound | MIC (Shigella boydii [1]) [µg/mL] | MIC (Saccharomyces cerevisiae [2]) [µg/mL] | MIC [3] [µM] | diameter of the inhibition zone (DIZ) (Klebsiella aerogenes [4]) [mm] | diameter of the inhibition zone (DIZ) (Shigella boydii [5]) [mm] | MIC (Candida albicans [6]) [µg/mL] | diameter of the inhibition zone (DIZ) (Bacillus cereus) [mm] | MIC (Aspergillus niger [7]) [µg/mL] | diameter of the inhibition zone (DIZ) (Aspergillus niger [8]) [mm] | MIC (Staphylococcus aureus [9]) [µg/mL] | diameter of the inhibition zone (DIZ) (Pseudomonas aeruginosa) [mm] | MIC (Klebsiella aerogenes [10]) [µg/mL] | diameter of the inhibition zone (DIZ) (Saccharomyces cerevisiae [11]) [mm] | diameter of the inhibition zone (DIZ) [12] [mm] | inhibition at 48 h, 25 µM [13] [%] | diameter of the inhibition zone (DIZ) (Escherichia coli) [mm] | diameter of the inhibition zone (DIZ) (Staphylococcus aureus [14]) [mm] | diameter of the inhibition zone (DIZ) (Candida albicans [15]) [mm] | diameter of the inhibition zone (DIZ) (Bacillus subtilis) [mm] | diameter of the inhibition zone (DIZ) (Salmonella typhi) [mm]
Cc1ccc([N+](=O)[O-])cc1-n1cc(COc2ccc3c(c2)CCC3)nn1 | 60 (≈ 171 µM) | 150 (≈ 428 µM) | 12.5 (≈ 4.38 µg/mL) | 11 | 11 | 40 (≈ 114 µM) | 12 | 155 (≈ 442 µM) | 6 | 50 (≈ 143 µM) | 9 | 60 (≈ 171 µM) | 6 | 9 | 26.5 | 11 | 13 | 15 | 12 | 11
COc1ccc(-n2cc(COc3ccc4c(c3)CCC4)nn2)cc1 | 70 (≈ 218 µM) | 210 (≈ 653 µM) | 25 (≈ 8.03 µg/mL) | 9 | 11 | 80 (≈ 249 µM) | 5 | 180 (≈ 560 µM) | 6 | 160 (≈ 498 µM) | 12 | 130 (≈ 405 µM) | 5 | 12 | 21.1 | 10 | 8 | 11 | 10 | 8
Cc1ccc(-n2cc(COc3ccc4c(c3)CCC4)nn2)c(C)c1 | 55 (≈ 172 µM) | 50 (≈ 157 µM) | 1.56 (≈ 0.498 µg/mL) | 10 | 11 | 60 (≈ 188 µM) | 10 | 70 (≈ 219 µM) | 10 | 150 (≈ 470 µM) | 13 | 75 (≈ 235 µM) | 12 | 9 | 19.9 | 12 | 7 | 11 | 10 | 12
O=C(Cn1cc(COc2ccc3c(c2)CCC3)nn1)Nc1cccc(Cl)c1 | 140 (≈ 366 µM) | 230 (≈ 601 µM) | > 25 | 12 | 11 | 165 (≈ 431 µM) | 10 | 190 (≈ 496 µM) | 8 | 135 (≈ 353 µM) | 9 | 110 (≈ 287 µM) | 5 | 7 | – | 13 | 10 | 10 | 12 | 13
O=C(Cn1cc(COc2ccc3c(c2)CCC3)nn1)Nc1cccc([N+](=O)[O-])c1 | 140 (≈ 356 µM) | 135 (≈ 343 µM) | > 25 | 10 | 10 | 150 (≈ 381 µM) | 12 | 220 (≈ 559 µM) | 5 | 140 (≈ 356 µM) | 6 | 145 (≈ 369 µM) | 9 | 10 | – | 10 | 10 | 10 | 11 | 10
COc1ccccc1NC(=O)Cn1cc(COc2ccc3c(c2)CCC3)nn1 | 150 (≈ 396 µM) | 210 (≈ 555 µM) | 6.25 (≈ 2.37 µg/mL) | 13 | 12 | 180 (≈ 476 µM) | – | 170 (≈ 449 µM) | 10 | 120 (≈ 317 µM) | 8 | 95 (≈ 251 µM) | 10 | 11 | 23.4 | 10 | 12 | 12 | 10 | 12
Brc1ccccc1-n1cc(COc2ccc3c(c2)CCC3)nn1 | 140 (≈ 378 µM) | 110 (≈ 297 µM) | 6.25 (≈ 2.31 µg/mL) | 12 | 12 | 130 (≈ 351 µM) | 9 | 170 (≈ 459 µM) | 7 | 90 (≈ 243 µM) | 13 | 120 (≈ 324 µM) | 10 | 13 | 16.5 | 11 | 16 | 9 | 10 | 11
